Experiments:
MOLM-13 = assay: Cell growth inhibition, CellTiter-Glo, acute leukemia cell line; assay type: cell-based; conditions: Homo sapiens, MOLM-13, 96 h, 4 days
Description: (§1) Cell growth inhibitory activity of representative BET bromodomain inhibitors was determined using CellTiter-Glo® Luminescent Cell Viability Assay. For leukemia cell lines MV-4-11 (ATCC, Manassas, Va.) and MOLM-13 (DSMZ, Germany), cells were seeded in 96-well white opaque cell culture plates at a density of 10,000 cells/well with serially diluted compounds and incubated at 37° C. in an atmosphere of 95% air and 5% CO2 for 4 days. Cell viability was determined using the CellTiter-Glo® Luminescent Cell Viability Assay Kit (Promega, Madison, Wis.) according to the manufacture's instruction. Briefly, a volume of CellTiter-Glo® Reagent equal to the volume of cell culture medium was added to each well, and then the plates were incubated at room temperature for 10-20 minutes. The luminescent signal was measured using a Tecan Infinite M1000 multimode microplate reader (Tecan, Morrisville, N.C.). The half maximal inhibitory concentration (IC50) was calculated using the GraphPad Prism 5 software (GraphPad Software, La Jolla, Calif.).

MV-4-11 = assay: as above; assay type: cell-based; conditions: Homo sapiens, MV4-11, 96 h, 4 days
Description: as §1

BT-474 = assay: Cell growth inhibition, WST-8, breast cancer cell line; assay type: cell-based; conditions: Homo sapiens, BT-474, 96 h, 4 days
Description: (§2) For breast cancer cell lines, cells were seeded in 96-well cell culture plates at a density of 5,000-10,000 cells/well with serially diluted compounds and incubated at 37° C. in an atmosphere of 95% air and 5% CO2 for 4 days. All the breast cancer cell lines were obtained from the ATCC. Cell viability was determined using the WST-8 (2-(2-methoxy-4-nitrophenyl)-3-(4-nitrophenyl)-5-(2,4-disulfophenyl)-2H-tetrazolium, monosodium salt) based Cell Counting-8 Kit (Dojindo Molecular Technologies, Inc., Rockville, Md.) according to the manufacture's instruction. Briefly, WST-8 was added to each well at a final concentration of 10% (v/v), and then the plates were incubated at 37° C. for 1-2 hours for color development. The absorbance was measured at 450 nm using a SPECTRAmax PLUS plate reader (Molecular Devices, Sunnyvale, Calif.). The IC50 was calculated using the GraphPad Prism 5 software.

MDA-MB-157 = assay: as above; assay type: cell-based; conditions: Homo sapiens, MDA-MB-157, 96 h, 4 days
Description: as §2

MDA-MB-231 = assay: as above; assay type: cell-based; conditions: Homo sapiens, MDA-MB-231, 96 h, 4 days
Description: as §2

MDA-MB-436 = assay: as above; assay type: cell-based; conditions: Homo sapiens, MDA-MB-436, 96 h, 4 days
Description: as §2

SK-BR-3 = assay: as above; assay type: cell-based; conditions: Homo sapiens, SK-BR-3, 96 h, 4 days
Description: as §2

prostate VCaP cell line = assay: Cell growth inhibition, Cell TiterGLO, 4 days; assay type: cell-based; conditions: Homo sapiens, VCaP, 96 h, treated 4 days, read-out: VCaP cells (IC50 (nM))
BRD2 BD1 = BRD2 BD1 (Homo sapiens (Human), UniProt P25440); assay: FP competitive binding assay using Cpd. No. 350 as the probe; conditions: read-out: BRD2 BD1 Ki; FP, Cpd. No. 350 probe […]
Sequence of BRD2 BD1 (P25440 74-180): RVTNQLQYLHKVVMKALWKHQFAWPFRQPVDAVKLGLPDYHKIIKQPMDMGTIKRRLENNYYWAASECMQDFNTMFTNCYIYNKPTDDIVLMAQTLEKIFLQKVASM

BRD2 BD2 = BRD2 BD2 (Homo sapiens (Human), UniProt P25440); assay: as above; conditions: read-out: BRD2 BD2 Ki; FP, Cpd. No. 350 probe […]
Sequence of BRD2 BD2 (P25440 344-453): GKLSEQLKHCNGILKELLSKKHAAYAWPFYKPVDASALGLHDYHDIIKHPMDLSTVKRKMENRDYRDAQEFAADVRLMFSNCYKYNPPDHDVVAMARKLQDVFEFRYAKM

BRD3 BD1 = BRD3 BD1 (Homo sapiens (Human), UniProt Q15059); assay: as above; conditions: read-out: BRD3 BD1 Ki; FP, Cpd. No. 350 probe […]
Sequence of BRD3 BD1 (Q15059 34-140): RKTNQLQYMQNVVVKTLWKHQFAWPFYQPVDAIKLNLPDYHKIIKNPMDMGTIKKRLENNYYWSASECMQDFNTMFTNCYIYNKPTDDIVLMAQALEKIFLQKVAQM
Description: (§3) Fluorescence Polarization (FP) competitive binding studies (see above) were carried out using the FAM labeled fluorescent probe Cpd. No. 350 to determine binding affinities of representative compounds to both BD1 and BD2 of BRD2, BRD3, and BRD4 proteins. Equilibrium dissociation constants (Id) values of Cpd. No. 350 to these six proteins were determined from protein saturation experiments by monitoring the total fluorescence polarization of mixtures composed with the fluorescent probe at a fixed concentration and proteins with increasing concentrations up to full saturation. Serial dilutions of testing protein were mixed with Cpd. No. 350 to a final volume of 200 μl in the assay buffer. […] Plates were incubated at room temperature for 30 minutes with gentle shaking to assure equilibrium. […] Kd values of Cpd.
(§4) The IC50 and Ki values of compounds were determined in a competitive binding experiment as described above. […] FP values were measured as described above. IC50 values were determined by nonlinear regression fitting of the competition curves.

BRD3 BD2 = BRD3 BD2 (Homo sapiens (Human), UniProt Q15059); assay: as above; conditions: read-out: BRD3 BD2 Ki; FP, Cpd. No. 350 probe […]
Sequence of BRD3 BD2 (Q15059 306-415): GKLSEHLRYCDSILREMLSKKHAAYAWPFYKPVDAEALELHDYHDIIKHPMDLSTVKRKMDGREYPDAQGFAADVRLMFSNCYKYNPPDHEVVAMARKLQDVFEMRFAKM
Description: as §3, §4

BRD4 BD1 = BRD4 BD1 (Homo sapiens (Human), UniProt O60885); assay: as above; conditions: read-out: BRD4 BD1 Ki; FP, Cpd. No. 350 probe […]
Description: as §3, §4

BRD4 BD2 = BRD4 BD2 (Homo sapiens (Human), UniProt O60885); assay: as above; conditions: read-out: BRD4 BD2 Ki; FP, Cpd. No. 350 probe […]
Description: as §3, §4

`COc1cc2c(cc1-c1c(C)noc1C)[nH]c1nc(C)nc(-c3c(C)[nH]c4ccccc34)c12` [Cpd. No. 68] gave an IC50 (MOLM-13) of less than 100 nM, an IC50 (MV-4-11) of less than 100 nM and an IC50 (BT-474) of less than 300 nM. For the same compound, the IC50 (MDA-MB-157) was less than 300 nM, the IC50 (MDA-MB-231) was less than 300 nM and the IC50 (MDA-MB-436) was less than 300 nM. The IC50 (SK-BR-3) was less than 300 nM, the IC50 (prostate VCaP cell line) was 148 nM and the Ki (BRD2 BD1) was 3.2 nM. It also gave a Ki (BRD2 BD2) of 2.7 nM, a Ki (BRD3 BD1) of 5.1 nM and a Ki (BRD3 BD2) of 0.65 nM. It also gave a Ki (BRD4 BD1) of 7.3 nM and a Ki (BRD4 BD2) of 1.7 nM.

— patent US9675697B2 (THE REGENTS OF THE UNIVERSITY OF MICHIGAN, priority 2013, dated 2017)
